Laboratory results published in patent US20240083933A1, “DISACCHARIDES FOR TREATING BONE DISEASES” (UNIVERSITE DE PICARDIE JULES VERNE, priority 2020, published 2024).
Several values for one entry are separate records, joined by “and”; a condition that tells them apart may be missing. Identical values can stand only once.

What was measured:
HOb cells [1] = assay: Calcium assay (pro-calcifying activity, mineralization) on human primary osteoblastic cells; format: cell-based; settings: for percentage of mineralization of the HOb cells / increase in calcification relative to the mineralizing condition: 14 days; for percentage of mineralization of the HOb cells: mineralizing conditions; for increase in calcification relative to the mineralizing condition: HOb
Protocol: (§1) For all experiments, a mouse pre-osteoblastic cell line (MC3T3-E1, ATCC) and human primary osteoblastic cells (HOb, Promocell) were used. The mouse pre-osteoblastic cells were cultured in 75 cm^2 flasks, containing 15 mL of α-MEM medium (M4526, SIGMA) and 10% fetal calf serum (FCS), containing 1% Penicillin/Streptomycin antibiotics and 1% glutamine. Similarly, human HOb cells were cultured in 75 cm 2 flasks containing 15 mL of proliferation medium (Human Osteoblast Proliferation Medium, PromoCell). The cells are maintained in the oven at 37° C., with 5% CO2 and 90% humidity. The medium was changed every three days.
(§2) MC3T3-E1 cells were seeded in 6-well plates at 63,700 cells/well to be treated in order to extract RNA or for alkaline phosphatase enzymatic activity assay and in 48-well plates for the calcium assay at 5250 cells/well. The HOb cells were seeded at 182,000 cells/well in 6-well plates for the extraction of RNA or for the alkaline phosphatase enzymatic activity assay; at 15,000 cells/well in 48-well plates for the calcium assay; at 10,000 cells/well in 48-well plates for the MTT test or the WST-1 test and at 100,000 cells/well in 6-well plates for the protein extraction or for the fluorescence.
(§3) In order to induce the mineralization, the MC3T3-E1 cells were treated with α-MEM medium containing 5% FCS to which 10 mM of β-glycerophosphate and 50 μg/mL of ascorbic acid are added. The HOb cells were treated with the “Osteoblast mineralization medium” (Promocell). […] After filtration, the cells were treated with the respective media (500 μL per well of the 48-well plate and 2 mL per well of the 6-well plate).
The calcification has also been studied on human osteoblastic cells (Hob, PromoCell, Heidelberg, Germany). They are isolated from femoral trabecular bone tissues.

[2] = Acetate migration DP2/DP2′ in solution (stability); format: physicochemical; settings: in methanol
Protocol: The compound DP2′ was extracted from the DP2-DP2′ mixture which is formed when the compound DP2 is dissolved in water. The compound DP2′ has been separated by preparative HPLC chromatography with water as elution solvent.
The inventors have observed that when the compound DP2′ was in water, the delocalization of the acetate group was also present, but with very slow kinetics compared to the DP2→DP2′ reaction. Thus, a solution of DP2′ in water which is left to rest contains, after 44 days, 10 to 15% of DP2. The DP2′ therefore remains alone in the water for a given duration which is quite long. It is therefore possible to test the biological effect of DP2′ in solution in water.
Similarly, the inventors have observed that the kinetics of the DP2→DP2′ reaction is such that it is also possible to test the biological activity of the compound DP2 alone after extraction of the formed compound DP2′. Thus, the two compounds DP2 and DP2′ can coexist or not in water for a given duration.
In methanol, for example, the compound DP2 is therefore alone.
There is about ⅔ of DP2R2 for ⅓ of DP2′. The compound DP2′ comes from a migration of the acetate group (R2) on the 30H position. The compound DP2′ could be isolated and synthesized as previously indicated. […]

smooth muscle cells = assay: Calcium production by smooth muscle cells; format: cell-based; settings: non-calcifying control condition; DP2 5-50 μM (FIG. 5)
Source text: FIG. […]
This therefore reinforces the hypothesis that DP2 will not induce any calcification on cells other than the osteoblastic cells.

MC3T3-E1 cells [3] = assay: Alkaline phosphatase (ALP) enzymatic activity assay, MC3T3-E1; format: cell-based, mouse; settings: MC3T3-E1, 13 days post-treatment
Source text: (§4) ALP is an enzyme synthesized by osteoblasts. It hydrolyses phosphoric esters which inhibit the mineralization by releasing a hydroxyl group and a phosphate. The osteoblasts produce matrix vesicles, reservoirs of alkaline phosphatases and ions, which, when released into the extracellular medium, would initiate the mineralization of the osteoid tissue by promoting the local concentrations of calcium ions and phosphates. Cells have been seeded in 6-well plates at 63700 cells/well for MC3T3-E1 and at 182000 cells/well for HOb.
(§5) After the PBS rinses, 50 μl of ALP Assay Buffer were added to the wells, the bottom of the wells was scraped and then the 50 μl were taken. A centrifugation for 3 minutes at 13000 G was carried out to remove the insoluble material. In a 96-well plate, 10 μl of each sample to be tested are placed with 70 μl of the ALP Assay buffer and 50 μl of the 5 mM pNPP solution. In parallel, the calibration range was prepared by placing, in the same 96-well plate. The reaction was incubated for 60 min at 25° C., shielded from light. The reaction was stopped by adding 20 μl of the Stop Solution. The optical density was measured at 405 nm.
(§6) After the ALP enzymatic activity assay, a protein assay was performed in order to normalize the results of the ALP assay depending on the number of proteins. […] The optical density was measured at 565 nm to determine the amount of proteins.

HOb cells [4] = assay: Alkaline phosphatase (ALP) enzymatic activity assay, HOb; format: cell-based, human; settings: 7 days post-treatment, 30 μM
Source text: as §4, §5, §6

MC3T3-E1 cells [5] = assay: Calcium assay (pro-calcifying activity) on mouse pre-osteoblastic cells; format: cell-based; settings: for increase in calcification relative to the mineralizing medium: MC3T3-E1, 25 days
Protocol: FIG. 1 represents the calcium dosage in the MC3T3-E1 culture medium (in […] of protein per well) after 9 days of exposure of these cells to 4 mM of Pi ([…]) (control+Pi) and 4 mM of Pi in the presence of 30 μM of each of the compounds referenced DP2SNA, DP2NA, DP2K and DP2S;
as §1, §2, §3
The release of calcium in the culture medium of mouse pre-osteoblastic cells (MC3T3-E1) has been studied.
An increase in calcification was observed, relative to the mineralizing medium (FIG. 2), in the presence of DP2R0 at 15 μM (40±2%), at 30 μM (28±18%) and at 50 μM (40±28%), and DP2NA at 15 μM (15±14%), at 30 μM (33±12%) and at 50 μM (10±19%).

For `CCCO[C@H]1OC(CO)[C@@H](O[C@@H]2OC(CO)[C@@H](O)C(O)C2NC(C)=O)C(O)C1OC(C)=O` (stereo partly drawn) [DP2, n-propyl, 2-O-acetyl-α-D-Glucopyranoside, 4-O-(2-acetamido-2-deoxy-β-D-glucopyranosyl)], the “percentage of mineralization of the HOb cells” value (HOb cells [1]; 30 μM, listed as DP2R0) was 181.573±9.155%, the “percentage of mineralization of the HOb cells” value (HOb cells [1]; 30 μM, listed as DP2R2) was 137.012±52.452% and 204.472% and 159.03±18.719% and the “increase in calcification relative to the mineralizing condition” value (HOb cells [1]; 15 μM) was 26±10%. The “increase in calcification relative to the mineralizing condition” value (HOb cells [1]; 30 μM) was 40±15%, the “increase in calcification relative to the mineralizing condition” value (HOb cells [1]; 50 μM) was 8±17% and the “mineralization of the HOb cells relative to the mineralizing medium alone” value (HOb cells [1]; lower concentrations 5, 7.5 and 10 μM (FIG. 4)) was “decrease in mineralization”. For the same compound, the “delocalization of the acetate group” value [2] was “no delocalization of the acetate group has been observed”, the “pro-calcifying action on the smooth muscle cells” value (smooth muscle cells) was “no pro-calcifying action” and the “ALP enzymatic activity relative to the mineralized medium alone (100%)” value (MC3T3-E1 cells [3]; 15 μM) was 118.907±10.466%. The “ALP enzymatic activity relative to the mineralized medium alone (100%)” value (MC3T3-E1 cells [3]; printed 15 μM (second mention)) was 148.833±15.761%, the “ALP enzymatic activity relative to the mineralized medium alone (100%)” value (HOb cells [4]; listed as DP2R0) was 210.494±14.979% and the “ALP enzymatic activity relative to the mineralized medium alone (100%)” value (HOb cells [4]; listed as DP2R2) was 149.749%. The “production of calcium by the MC3T3-E1 cells (calcium dosage in culture medium)” value (MC3T3-E1 cells [5]; 9 days, 4 mM Pi, 30 μM compound, vs control+Pi (FIG. 1)) was “increase the production of calcium”, the “increase in calcification relative to the mineralizing medium” value (MC3T3-E1 cells [5]; 15 μM) was 40±2% and the “increase in calcification relative to the mineralizing medium” value (MC3T3-E1 cells [5]; 30 μM) was 28±18%. For the same compound, the “increase in calcification relative to the mineralizing medium” value (MC3T3-E1 cells [5]; 50 μM) was 40±28%.
